Activity calls are given as the source filed them. The rule behind the calls is not given here.
Tests used:
[1] = target: Acetylcholinesterase (Homo sapiens) (UniProt P22303); test: Inhibition of human AChE up to 200 ug/ml by Ellman's assay
[2] = tested on: A549; test: Cytotoxicity against human A549 cells up to 200 ug/ml by SRB method; format: functional, cell-based
[3] = tested on: Staphylococcus aureus; test: Antibacterial activity against Staphylococcus aureus up to 200 ug/ml by microdilution assay; format: functional, organism-based
[4] = tested on: Escherichia coli; test: Antibacterial activity against Escherichia coli up to 200 ug/ml by microdilution assay; format: functional, organism-based
[5] = tested on: K562; test: Cytotoxicity against human K562 cells up to 200 ug/ml by MTT assay; format: functional, cell-based
[6] = tested on: K562; test: cells; details: Homo sapiens
Description: Cytotoxicity against human K562 cells by MTT assay

[7] = tested on: A549; test: cells; details: Homo sapiens
Description: Cytotoxicity against human A549 cells by SRB method

Acetylcholinesterase (Homo sapiens), sequence (P22303 whole entry): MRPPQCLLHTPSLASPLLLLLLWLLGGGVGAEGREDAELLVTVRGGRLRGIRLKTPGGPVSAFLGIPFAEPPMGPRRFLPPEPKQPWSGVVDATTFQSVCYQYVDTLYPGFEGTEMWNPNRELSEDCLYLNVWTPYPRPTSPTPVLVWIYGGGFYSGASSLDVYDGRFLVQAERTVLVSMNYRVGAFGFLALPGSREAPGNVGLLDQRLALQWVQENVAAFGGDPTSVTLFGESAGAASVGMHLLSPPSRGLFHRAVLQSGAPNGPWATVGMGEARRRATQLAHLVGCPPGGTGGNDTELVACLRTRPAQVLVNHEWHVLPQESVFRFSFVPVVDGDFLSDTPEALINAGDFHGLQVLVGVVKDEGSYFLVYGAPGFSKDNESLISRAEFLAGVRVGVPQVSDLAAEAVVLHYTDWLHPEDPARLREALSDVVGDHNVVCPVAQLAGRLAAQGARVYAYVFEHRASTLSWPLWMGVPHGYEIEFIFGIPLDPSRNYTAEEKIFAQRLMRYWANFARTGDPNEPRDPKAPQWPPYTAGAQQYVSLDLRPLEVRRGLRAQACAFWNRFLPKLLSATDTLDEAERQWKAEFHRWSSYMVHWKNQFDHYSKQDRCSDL

| SMILES | Activity [1] | Activity [2] | Activity [3] | Activity [4] | Activity [5] | IC50 [6] [µM] | IC50 [7] [µM] |
| --- | --- | --- | --- | --- | --- | --- | --- |
| C/C(=C\C[C@@]12CCN(C)[C@@H]1[N+](C)(C)c1ccccc12)C(=O)N[C@@H](Cc1ccccc1)C(=O)[O-] | inactive | inactive | inactive | inactive | inactive | – | – |
| COc1cccc2c1C(=O)c1c(O)c3c(c(O)c1C2=O)C[C@@](O)(C(=O)CO)C[C@@H]3O[C@H]1C[C@H](N)[C@H](O)[C@H](C)O1 [DOXORUBICIN] | – | – | – | – | – | 0.32 | – |
| O=c1[nH]cc(F)c(=O)[nH]1 [FLUOROURACIL] | – | – | – | – | – | – | 20.8 |
| C/C(=C\C[C@@]1(c2ccccc2N(C)C)CCN(C)C1=O)C(=O)O | inactive | inactive | inactive | inactive | inactive | – | – |
| C/C(=C\C[C@@]12CCN(C)[C@@H]1[N+](C)(C)c1ccccc12)C(=O)[O-] | inactive | inactive | inactive | inactive | inactive | – | – |
